Experimental findings from article PMC9861858, “Stereoselective Synthesis and Antiproliferative Activities of Tetrafunctional Diterpene Steviol Derivatives” (International Journal of Molecular Sciences, 2023) are described below.

Entries after “also recorded” stand apart in the source; their conditions may differ.

Test [1] relates to NIH/3T3 fibroblasts. Briefly: MTT assay on fibroblasts (selectivity). It counts as cell-based, murine. The note with it: Mus musculus, 72 h, values <20% considered negligible, read-out: Growth inhibition (%) ± SEM, NIH/3T3; for inhibition at 10 µM: NIH3T3, 10 μM; for inhibition at 30 µM: NIH3T3, 30 μM. In a few lines: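 Absorbance at 545 nm of DMSO-solubilised formazan, formed during a 4 h MTT incubation, gave growth inhibition after 72 h compound treatment at two concentrations, 10 and 30 μM. Seeding was 5000 cells per well with overnight attachment; medium was EMEM plus 10% fetal bovine serum.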
In general terms: Tetrazolium assays rely on reduction of a dye to a coloured formazan, in cell work by metabolically active cells.

The test system of test [2] is human cancer cell lines (HeLa, SiHa, A2780, MCF-7 and MDA-MB-231). Put plainly: MTT antiproliferative assay, whole cancer cell panel. It is filed as cell-based. The note with it: 10 and 30 μM. The protocol: The in vitro antiproliferative activities of the synthesised aminotriols 5–18 against a panel of different human cancer cell lines of gynecological origin, including cervical (SiHA and HeLa), breast (MCF7 and MDA-MB-231), ovary (A2780) cancers and NIH/3T3 healthy fibroblasts, were assayed by the MTT method. Cisplatin, a clinically applied anticancer agent was used as a reference compound, and the results are summarised in Figure 3 and Table S1 in the Supplementary Materials.
The growth-inhibitory effects of the presented terpenes were determined by a standard MTT [3-(4,5-dimethylthiazol2-yl)-2,5-diphenyltetrazolium bromide] assay against […] human cancer cell lines (cervical cancer HeLa and SiHa cell lines, breast cancer MCF-7 and MDA-MB-231 and ovarian cancer A2780). Murine embryonal fibroblast cells (NIH/3T3) were used to determine selectivity. All cell lines were purchased from the European Collection of Cell Cultures (Salisbury, UK). The cells were cultivated in Eagle’s minimal essential medium supplemented with 10% fetal bovine serum, 1% non-essential amino acids, and 1% Antibiotic-Antimycotic complex (penicillin, streptomycin, amphotericin B) at 37 °C in a humidified atmosphere containing 5% CO2. All media and supplements were purchased from Lonza Group Ltd. (Basel, Switzerland). Cancer cells were seeded into 96-well plates (5000 cells/well) after an overnight incubation, and the test compounds were added at two different concentrations (10 μM and 30 μM) and incubated for another 72 h under cell-culturing conditions. Finally, 20 μL of a 5 mg/mL MTT solution was added to each well, and the contents were incubated for a further 4 h. The medium was removed, and the precipitated formazan crystals were dissolved in DMSO by shaking at 37 °C for 60 min. The absorbance was measured at 545 nm by using a microplate reader (SPECTROStar Nano, BMG Labtech, Offenburg, Germany). Clinically utilised anticancer agent cisplatin (Ebewe GmbH, Unterach, Austria) was included as a reference molecule. Calculations were performed using the GraphPad Prism 9 software (GraphPad Software Inc., San Diego, CA, USA).

As to `COC(=O)[C@]1(C)CCC[C@@]2(C)C3CC[C@]4(O)C[C@@]3(CCC21)[C@@H](O)[C@]4(O)CNCc1ccccc1` (stereo partly drawn) [Compound 5, (4R,6aR,7R,8R,9S,11bS)-Methyl 8-((Benzylamino)methyl)-7,8,9-trihydroxy-4,11b-dimethyltetradecahydro-6a,9-methanocyclohepta[a]naphthalene-4-carboxylate], in test [1], the inhibition at 10 µM is less than 20% and the inhibition at 30 µM came out at 101.1 ± 0.43%. In addition, the “Antiproliferative activity on the cancer cell panel, in words” value in test [2] was “significant activity in higher concentrations only”.
In the same order, the values of `COC(=O)[C@]1(C)CCC[C@@]2(C)C3CC[C@]4(O)C[C@@]3(CCC21)[C@@H](O)[C@]4(O)CN(C)Cc1ccccc1` (stereo partly drawn) [Compound 6, (4R,6aR,7R,8R,9S,11bS)-Methyl 8-((Benzyl(methyl)amino)methyl)-7,8,9-trihydroxy-4,11b-dimethyltetradecahydro-6a,9-methanocyclohepta[a]naphthalene-4-carboxylate] are less than 20%, 89.3 ± 2.62% and “lower bioactivity; also recorded: significant activity in higher concentrations only”.
With `COC(=O)[C@]1(C)CCC[C@@]2(C)C3CC[C@]4(O)C[C@@]3(CCC21)[C@@H](O)[C@]4(O)CNCc1ccc(F)cc1` (stereo partly drawn) [Compound 9, (4R,6aR,7R,8R,9S,11bS)-Methyl 8-(((4-Fluorobenzyl)amino)methyl)-7,8,9-trihydroxy-4,11b-dimethyltetradecahydro-6a,9-methanocyclohepta[a]naphthalene-4-carboxylate], in test [1], the inhibition at 10 µM was 25.9 ± 0.94% and the inhibition at 30 µM was 92.4 ± 1.01%.
As to `CC[C@@H](NC[C@@]1(O)[C@H](O)[C@@]23CCC4[C@@](C)(CCC[C@@]4(C)C(=O)OC)C2CC[C@]1(O)C3)c1ccccc1` (stereo partly drawn) [Compound 15, (4R,6aR,7R,8R,9S,11bS)-Methyl 7,8,9-Trihydroxy-4,11b-dimethyl-8-((((R)-1-phenylpropyl)amino)methyl)tetradecahydro-6a,9-methanocyclohepta[a]naphthalene-4-carboxylate], in test [1], the inhibition at 10 µM was found to be 21 ± 0.96% and the inhibition at 30 µM came out at 94.23 ± 0.31%.
As to `CC[C@H](NC[C@@]1(O)[C@H](O)[C@@]23CCC4[C@@](C)(CCC[C@@]4(C)C(=O)OC)C2CC[C@]1(O)C3)c1ccccc1` (stereo partly drawn) [Compound 16, (4R,6aR,7R,8R,9S,11bS)-Methyl 7,8,9-Trihydroxy-4,11b-dimethyl-8-((((S)-1-phenylpropyl)amino)methyl)tetradecahydro-6a,9-methanocyclohepta[a]naphthalene-4-carboxylate], in test [1], the inhibition at 10 µM was less than 20% and the inhibition at 30 µM worked out at 95.12 ± 0.41%.
